Reference: patent US10391086B2, “Use of EP4 receptor antagonists in the treatment of cartilage disease” (AskAt Inc., priority 2013, dated 2019)

Tested on: bovine full-depth cartilage explants
Experiment: Ex vivo bovine cartilage explant model
Assay type: cell-based
Conditions: serum-free culture, biomarkers (P2NP, C2M, AGNx1, AGNx2) in supernatant at day 7, 14 and 21, FIG. 1 (C2M) and FIG. 2 (AGNx2), oncostatin M + TNF-alpha
Description: The method of this assay is descrived in the following literature (Rheumatol Int. 2013 February; 33(2):401-11).
Full-depth cartilage explants were harvested from the knee of either back legs of a cow less than 24 month old. All the FDC explants are divided into different treatment group according to the explants weight and metabolic activity (viability) measured by Alamar Blue. Compounds were freshly added to the explants at each media change. The explants were cultured in serum-free conditions. Supernatants retrieved from the culture were analyzed by biomarkers (P2NP, C2M, AGNx1, AGNx2) at day 7, 14 and 21.

Compound | inhibition of cartilage destruction
C[C@H](NC(=O)c1cc(Cl)cnc1Oc1cccc(F)c1)c1ccc(C(=O)O)cc1 [Compound B, 4-[(1S)-1-({[5-chloro-2-(3-fluorophenoxy)pyridin-3-yl]carbonyl}amino)ethyl]benzoic acid] | dose-dependent inhibition of cartilage destruction
CCc1nc2c(C)nc(C)cc2n1-c1ccc(CCNC(=O)NS(=O)(=O)c2ccc(C)cc2)cc1 [Compound A, 3-[2-(4-{2-ethyl-4,6-dimethyl-1H-imidazo[4,5-c]pyridin-1-yl}phenyl)ethyl]-1-[(4-methylbenzene)sulfonyl]urea] | dose-dependent inhibition of cartilage destruction
